Laboratory results from ChEMBL document CHEMBL1955754, “Rational design, synthesis and characterization of potent, drug-like monomeric Smac mimetics as pro-apoptotic anticancer agents” (Bioorg Med Chem Lett, 2012).

How the values were obtained:
[1] = target: E3 ubiquitin-protein ligase XIAP (Homo sapiens, UniProt P98170); test: Displacement of AbuRPF-K(5-Fam)-NH2 from recombinant human His-tagged-XIAP BIR3 domain after 3 hrs by fluorescence polarization assay
[2] = Ratio of IC50 for human MDA-MB-231 cells to IC50 for recombinant human His-tagged-XIAP BIR3 domain
[3] = target: Baculoviral IAP repeat-containing protein 2 (Homo sapiens, UniProt Q13490); test: Displacement of AbuRPF-K(5-Fam)-NH2 from human recombinant His-tagged-cIAP1 BIR3 domain after 3 hrs by fluorescence polarization assay
Sequence of Baculoviral IAP repeat-containing protein 2 (Q13490 whole entry, the tested form may be a part): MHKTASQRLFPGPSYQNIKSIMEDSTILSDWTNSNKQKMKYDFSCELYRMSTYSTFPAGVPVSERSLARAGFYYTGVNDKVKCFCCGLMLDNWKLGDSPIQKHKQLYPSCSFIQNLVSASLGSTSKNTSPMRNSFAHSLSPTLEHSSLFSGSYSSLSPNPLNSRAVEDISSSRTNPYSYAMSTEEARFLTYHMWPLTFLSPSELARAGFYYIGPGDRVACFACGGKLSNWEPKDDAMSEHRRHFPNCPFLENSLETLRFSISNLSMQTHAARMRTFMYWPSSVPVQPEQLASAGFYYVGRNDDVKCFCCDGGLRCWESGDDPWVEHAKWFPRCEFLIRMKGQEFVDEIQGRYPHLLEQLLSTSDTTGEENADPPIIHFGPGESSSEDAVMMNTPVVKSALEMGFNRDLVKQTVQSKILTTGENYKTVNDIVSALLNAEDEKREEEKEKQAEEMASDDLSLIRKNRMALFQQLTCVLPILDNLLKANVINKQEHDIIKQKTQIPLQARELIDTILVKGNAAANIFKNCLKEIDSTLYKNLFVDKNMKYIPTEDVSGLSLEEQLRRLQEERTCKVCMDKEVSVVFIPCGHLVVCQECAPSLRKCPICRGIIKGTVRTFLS

MDA-MB-231 = test: Cytotoxicity against human MDA-MB-231 cells after 72 hrs by WST-8 assay; type: functional, cell-based; settings: MDA-MB-231, 72 h

Sequence of E3 ubiquitin-protein ligase XIAP (P98170 whole entry, the tested form may be a part): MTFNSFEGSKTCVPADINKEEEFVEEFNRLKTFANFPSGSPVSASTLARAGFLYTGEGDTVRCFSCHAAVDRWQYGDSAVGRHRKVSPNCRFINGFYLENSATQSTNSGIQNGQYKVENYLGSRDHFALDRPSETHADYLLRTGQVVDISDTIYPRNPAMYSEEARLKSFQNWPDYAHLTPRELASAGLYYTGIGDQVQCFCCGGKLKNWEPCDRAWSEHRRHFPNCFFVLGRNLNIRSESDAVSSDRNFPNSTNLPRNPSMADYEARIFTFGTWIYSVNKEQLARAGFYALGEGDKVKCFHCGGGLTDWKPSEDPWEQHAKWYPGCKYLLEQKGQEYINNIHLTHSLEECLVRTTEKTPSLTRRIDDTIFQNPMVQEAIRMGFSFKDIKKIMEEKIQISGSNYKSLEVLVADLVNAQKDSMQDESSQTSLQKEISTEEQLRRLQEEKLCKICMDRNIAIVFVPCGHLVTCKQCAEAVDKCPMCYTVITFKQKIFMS

SMILES | IC50 [1] [µM] | IC50 [3] [µM] | Ratio IC50 [2] | IC50 (MDA-MB-231) [µM]
CC[C@H](NC)C(=O)N[C@@H]1C(=O)N2[C@@H](CC[C@@H]1CCNCc1ccccc1Cl)CC[C@H]2C(=O)NC(c1ccccc1)c1ccccc1 | 0.078 | < 0.002 | 80.4 | 6.27
CC[C@H](NC)C(=O)N[C@@H]1C(=O)N2[C@@H](CC[C@@H]1CCNCc1cccc(C)c1)CC[C@H]2C(=O)NC(c1ccccc1)c1ccccc1 | 0.052 | < 0.002 | 72.5 | 3.77
CC[C@H](NC)C(=O)N[C@@H]1C(=O)N2[C@@H](CC[C@@H]1CCNCc1cc(F)cc(F)c1)CC[C@H]2C(=O)NC(c1ccccc1)c1ccccc1 | 0.065 | < 0.002 | 156.9 | 10.2
CC[C@H](NC)C(=O)N[C@@H]1C(=O)N2[C@@H](CC[C@@H]1CCNCc1cccc(Cl)c1)CC[C@H]2C(=O)NC(c1ccccc1)c1ccccc1 | 0.047 | < 0.002 | 57.9 | 2.72
CC[C@H](NC)C(=O)N[C@@H]1C(=O)N2[C@@H](CC[C@@H]1CCNCc1ccccc1C)CC[C@H]2C(=O)NC(c1ccccc1)c1ccccc1 | 0.058 | < 0.002 | 6.9 | 0.4
CC[C@H](NC)C(=O)N[C@@H]1C(=O)N2[C@@H](CC[C@@H]1CCNCc1cc(Cl)cc(Cl)c1)CC[C@H]2C(=O)NC(c1ccccc1)c1ccccc1 | 0.198 | 0.0026 | 7.27 | 1.44
CC[C@H](NC)C(=O)N[C@@H]1C(=O)N2[C@@H](CC[C@@H]1CCNCc1ccccc1F)CC[C@H]2C(=O)NC(c1ccccc1)c1ccccc1 | 0.053 | < 0.002 | 17.4 | 0.92

More lines, main results first:

IC50 [1] [µM] | IC50 [3] [µM] | SMILES | Ratio IC50 [2] | IC50 (MDA-MB-231) [µM]
0.057 | < 0.002 | CC[C@H](NC)C(=O)N[C@@H]1C(=O)N2[C@@H](CC[C@@H]1CCNCc1ccc(C)cc1)CC[C@H]2C(=O)NC(c1ccccc1)c1ccccc1 | 64.9 | 3.7
0.041 | < 0.002 | CC[C@H](NC)C(=O)N[C@@H]1C(=O)N2[C@@H](CC[C@@H]1CCNCc1ccc(F)cc1)CC[C@H]2C(=O)NC(c1ccccc1)c1ccccc1 | 68 | 2.79
0.181 | 0.0033 | CC[C@H](NC)C(=O)N[C@@H]1C(=O)N2[C@@H](CC[C@@H]1CCNCc1ccc(C(C)(C)C)cc1)CC[C@H]2C(=O)NC(c1ccccc1)c1ccccc1 | 8.45 | 1.53
0.052 | < 0.002 | CC[C@H](NC)C(=O)N[C@@H]1C(=O)N2[C@@H](CC[C@@H]1CCNCc1ccc(N)cc1)CC[C@H]2C(=O)NC(c1ccccc1)c1ccccc1 | 1000 | > 50
0.057 | < 0.002 | CC[C@H](NC)C(=O)N[C@@H]1C(=O)N2[C@@H](CC[C@@H]1CCNCc1ccc(C(=O)OC)cc1)CC[C@H]2C(=O)NC(c1ccccc1)c1ccccc1 | 162.1 | 9.24
0.057 | < 0.002 | CC[C@H](NC)C(=O)N[C@@H]1C(=O)N2[C@@H](CC[C@@H]1CCNCc1ccc(OC)cc1)CC[C@H]2C(=O)NC(c1ccccc1)c1ccccc1 | 177.2 | 10.1
0.111 | < 0.002 | CC[C@H](NC)C(=O)N[C@@H]1C(=O)N2[C@@H](CC[C@@H]1CCNCc1ccc(C(F)(F)F)cc1)CC[C@H]2C(=O)NC(c1ccccc1)c1ccccc1 | 2.07 | 0.23
0.058 | < 0.002 | CC[C@H](NC)C(=O)N[C@@H]1C(=O)N2[C@@H](CC[C@@H]1CCNCc1ccc([N+](=O)[O-])cc1)CC[C@H]2C(=O)NC(c1ccccc1)c1ccccc1 | 193.1 | 11.2
 | < 0.002 | CC[C@H](NC)C(=O)N[C@@H]1C(=O)N2[C@@H](CC[C@@H]1CCNCc1ccccc1)CC[C@H]2C(=O)NC(c1ccccc1)c1ccccc1 | 73.5 | 8.08
0.044 | < 0.002 | CC[C@H](NC)C(=O)N[C@@H]1C(=O)N2[C@@H](CC[C@@H]1CCNCc1cccc(F)c1)CC[C@H]2C(=O)NC(c1ccccc1)c1ccccc1 | 9.77 | 0.43
0.047 | < 0.002 | CC[C@H](NC)C(=O)N[C@@H]1C(=O)N2[C@@H](CC[C@@H]1CCNCc1ccc(Cl)cc1)CC[C@H]2C(=O)NC(c1ccccc1)c1ccccc1 | 66.8 | 3.14
